Results reported in patent publication US20140010939A1, “Sweetness Enhancers, Sweetener Compositions, Methods of Making the Same and Consumables Containing the Same” (Nutrinova Nutrition Specialties & Food Ingredients GmbH, priority 2011, published 2014).

Tested on: control cell line without sweet receptor (HEKα15#17)
Assay: Control cell line without sweet receptor in the same calcium cell based assay
Experimental: For measurement of human T1R2/T1R3 taste receptor dependent activity a control cell line without sweet receptor based on HEK 293 and a cell line expressing the sweet receptor hT1R2/hT1R3 based on HEK 293, respectively, are seeded into assay plates and labelled with the calcium sensitive fluorescence dye Fluo4-AM in a culture medium. The potential modulators, e.g. the test compound, are added to the control cell line and to the cell line expressing the sweet receptor hT1R2/hT1R3, respectively.
A stable cell line based on HEK293 was termed HEKα15#17 served as control for functional Ga-protein and a stable cell line HEKGα15#17R2R3b#8 C6 served as cell line expressing the sweet receptor hT1R2/hT1R3 based on HEKGα15#17.
The cells were cultured in DMEM/HG and 10% FCS Gold, 4 mM L-Glutamin, 1,3 mg/ml Geneticin (HEKGα15#17) or the same medium additionally containing 6 μg/ml Blasticidin (HEKGα15#17R2R3b#8 C6). The medium for the assay was DMEM/HG (high glucose, 4.5 g/l glucose, Life Technologies) and 10% FCS Gold, 4 mM L-Glutamin (HEKGα15#17) or DMEM/LG (low glucose, 1 g/l glucose; Life Technologies) and 10% FCS Gold (HEKGα15#17R2R3b#8C6), respectively.
In order to evaluate the sweet receptor modulating activity of the compound of formula (Ia), compound of formula (Ia) was added to the cultures in a concentration of 25 μM in a volume of 50 μl. Controls were KH-buffer (Krebs HEPES-buffer: 118 mM NaCl, 4.7 mM KCl, 1.2 mM MgSO4, 1.2 mM KH2PO4, 4.2 mM NaHCO3, 1.3 mM CaCl2, 10 mM Hepes, pH 7.4) either without or with sweetness enhancer.
Further controls for function of G-protein and receptor were isoproterenol (1 μM, Sigma Aldrich), ionomycin (1 μM, Calbiochem) and ATP (1 μM, Applichem).
For measurement of human T1R2/T1R3 taste receptor dependent activity, on day 1 of the test procedure the HEKα15#17 cells (control cell line without sweet receptor) and the HEKGα15#17R2R3b#8 C6 cells (cell line expressing the sweet receptor hT1R2/hT1R3), respectively, were transferred to low-glucose medium.
On day 2 the cells were seeded into assay plates at a density of 25,000 cells/well. Assay plates for fluorescence measurement (black clear bottom 96-cavity plates, Greiner Bio-One) were coated with poly-D-lysine. For direct comparison both cell lines (control cell line without sweet receptor and cell line expressing the sweet receptor hT1R2/hT1R3) were seeded into different cavities of the same assay plate. The plate was placed into the incubator for 48 hours at 37° C., 5% CO2, 100% relative humidity.
On day 4 the calcium assay was performed. For this assay, the cells were marked with Fluo4-AM in medium and KH-buffer. To each cavity 100 μl KH-buffer/250 μM sulfinpyrazone/4 μM Fluo4-AM were added gently to 100 μl medium (final concentration of Fluo4-AM=2 μM, stock solution of Fluo4-AM 1 mM in DMSO, excitation at 485 nm, emission at 520 nm, Fisher Scientific, 58239 Schwerte, Germany).
The plate was placed into the incubator for 1 hour. In the mean time the test substances (“ligands”) were prepared in a separate plate (5 times concentrated, 150 μl/cavity, and then automatically 50 μl/cavity were transferred into the screening cell plate by pipetting robot (FLEX-station, Molecular Devices, Sunnyvale, Calif.).
The culture medium was carefully removed and 200 μl KH-buffer/250 μM sulfinpyrazone per cavity was added slowly. Cells were left in the FLEX-station for 20 minutes for adaptation, followed by measurement at 37° C.

[1] = control compounds 1 μM, FIG. 1 second to fourth bars

Nc1ncnc2c1ncn2[C@@H]1O[C@H](COP(=O)(O)OP(=O)(O)OP(=O)(O)O)[C@@H](O)[C@H]1O [ATP]
Fluo4-AM fluorescence increase (activation of control cell line) [1]: activate both the control and the cell line expressing the sweet receptor hT1R2/hT1R3

O=C(CO)[C@@H](O)[C@H](O)[C@H](O)CO [fructose]
Fluo4-AM fluorescence increase (activation of control cell line) (KH buffer/fructose (20 mM), FIG. 1 fifth bar): does neither activate the control cell line

C[C@H](CCC(=O)O)C[C@H](C)C[C@H](C)C(=O)/C=C(\O)[C@H](C)C[C@H](C)C/C=C/[C@@H](C)[C@@H](O)[C@@H](C)[C@@H](O)C[C@@H]1CC[C@@](C)([C@H]2CC[C@@](C)([C@@H](C)O)O2)O1 [ionomycin]
Fluo4-AM fluorescence increase (activation of control cell line) [1]: activate both the control and the cell line expressing the sweet receptor hT1R2/hT1R3

CC(C)NCC(O)c1ccc(O)c(O)c1 (centres unmarked) [isoproterenol]
Fluo4-AM fluorescence increase (activation of control cell line) [1]: activate both the control and the cell line expressing the sweet receptor hT1R2/hT1R3

O=S(=O)([O-])NC1CCCCC1.[Na+] [sodium cyclamate]
Fluo4-AM fluorescence increase (activation of control cell line) (sodium cyclamate 30 mM, control sweetener, FIG. 1 first bar): does not activate the control cell line
